Assay results from ChEMBL document CHEMBL4421728, “Bach1 Inhibitors in Combination with Nrf2 Activators and Pharmaceutical Compositions Thereof” (2017).

How the values were obtained:
[1] = target: T1, Transcription regulator protein BACH1 (Homo sapiens) (UniProt O14867); experiment: Inhibition of Bach1 in normal human lung fibroblasts assessed as induction of HMOX protein expression at 0.625 uM incubated for 16 to 18 hrs in presence of 0.019 uM Nrf2 activator Bardoxolone methyl by immunostaining relative to control
T1 sequence (whole entry): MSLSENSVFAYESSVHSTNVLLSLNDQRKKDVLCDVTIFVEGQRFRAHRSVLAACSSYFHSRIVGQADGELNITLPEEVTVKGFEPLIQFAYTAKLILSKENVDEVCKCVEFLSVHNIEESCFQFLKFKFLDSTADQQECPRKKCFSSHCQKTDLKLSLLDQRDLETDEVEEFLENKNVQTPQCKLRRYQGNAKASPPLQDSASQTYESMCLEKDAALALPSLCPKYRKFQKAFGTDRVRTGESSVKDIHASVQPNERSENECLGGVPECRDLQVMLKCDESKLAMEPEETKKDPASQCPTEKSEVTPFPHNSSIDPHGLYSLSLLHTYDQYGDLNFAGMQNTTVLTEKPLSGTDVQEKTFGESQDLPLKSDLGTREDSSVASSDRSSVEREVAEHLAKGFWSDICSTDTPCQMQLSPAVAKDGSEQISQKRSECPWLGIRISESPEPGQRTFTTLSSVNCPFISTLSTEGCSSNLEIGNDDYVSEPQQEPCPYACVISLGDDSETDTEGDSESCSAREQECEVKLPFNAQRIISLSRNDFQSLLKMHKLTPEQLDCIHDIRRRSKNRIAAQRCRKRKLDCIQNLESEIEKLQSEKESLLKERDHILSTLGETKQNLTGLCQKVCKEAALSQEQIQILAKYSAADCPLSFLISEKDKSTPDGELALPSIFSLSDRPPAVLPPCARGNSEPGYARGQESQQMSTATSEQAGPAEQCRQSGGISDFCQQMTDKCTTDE

[2] = target: T1, Transcription regulator protein BACH1 (Homo sapiens); experiment: Inhibition of Bach1 in normal human lung fibroblasts assessed as induction of HMOX protein expression at 0.019 uM incubated for 16 to 18 hrs in presence of 0.078 uM Nrf2 activator Bardoxolone methyl by immunostaining relative to control
[3] = target: T1, Transcription regulator protein BACH1 (Homo sapiens); experiment: Inhibition of Bach1 in normal human lung fibroblasts assessed as induction of HMOX protein expression at 0.156 uM incubated for 16 to 18 hrs in presence of 0.078 uM Nrf2 activator Bardoxolone methyl by immunostaining relative to control
[4] = target: T1, Transcription regulator protein BACH1 (Homo sapiens); experiment: Inhibition of Bach1 in normal human lung fibroblasts assessed as induction of HMOX protein expression at 0.312 uM incubated for 16 to 18 hrs in presence of 0.0048 uM Nrf2 activator Bardoxolone methyl by immunostaining relative to control
[5] = target: T1, Transcription regulator protein BACH1 (Homo sapiens); experiment: Inhibition of Bach1 in normal human lung fibroblasts assessed as induction of HMOX protein expression at 0.156 uM incubated for 16 to 18 hrs in presence of 0.0024 uM Nrf2 activator Bardoxolone methyl by immunostaining relative to control
[6] = target: T1, Transcription regulator protein BACH1 (Homo sapiens); experiment: Inhibition of Bach1 in normal human lung fibroblasts assessed as induction of HMOX protein expression at 0.078 uM incubated for 16 to 18 hrs in presence of 0.078 uM Nrf2 activator Bardoxolone methyl by immunostaining relative to control
[7] = target: T1, Transcription regulator protein BACH1 (Homo sapiens); experiment: Inhibition of Bach1 in normal human lung fibroblasts assessed as induction of HMOX protein expression at 0.039 uM incubated for 16 to 18 hrs in presence of 0.156 uM Nrf2 activator Bardoxolone methyl by immunostaining relative to control
[8] = target: T1, Transcription regulator protein BACH1 (Homo sapiens); experiment: Inhibition of Bach1 in normal human lung fibroblasts assessed as induction of HMOX protein expression at 0.312 uM incubated for 16 to 18 hrs in presence of 0.078 uM Nrf2 activator Bardoxolone methyl by immunostaining relative to control
[9] = target: T1, Transcription regulator protein BACH1 (Homo sapiens); experiment: Inhibition of Bach1 in normal human lung fibroblasts assessed as induction of HMOX protein expression at 0.625 uM incubated for 16 to 18 hrs in presence of 0.0024 uM Nrf2 activator Bardoxolone methyl by immunostaining relative to control
[10] = target: T1, Transcription regulator protein BACH1 (Homo sapiens); experiment: Inhibition of Bach1 in normal human lung fibroblasts assessed as induction of HMOX protein expression at 1.25 uM incubated for 16 to 18 hrs in presence of 0.0024 uM Nrf2 activator Bardoxolone methyl by immunostaining relative to control
[11] = target: T1, Transcription regulator protein BACH1 (Homo sapiens); experiment: Inhibition of Bach1 in normal human lung fibroblasts assessed as induction of HMOX protein expression at 0.625 uM incubated for 16 to 18 hrs in presence of 0.0097 uM Nrf2 activator Bardoxolone methyl by immunostaining relative to control
[12] = target: T1, Transcription regulator protein BACH1 (Homo sapiens); experiment: Inhibition of Bach1 in normal human lung fibroblasts assessed as induction of HMOX protein expression at 0.312 uM incubated for 16 to 18 hrs in presence of 0.0097 uM Nrf2 activator Bardoxolone methyl by immunostaining relative to control

fold change (FC) [1]: 16.8
fold change (FC) [2]: 22.3
fold change (FC) [3]: 18.4
fold change (FC) [4]: 13.6
fold change (FC) [5]: 7.32
fold change (FC) [6]: 19.5
fold change (FC) [7]: 17.2
fold change (FC) [8]: 21.1
fold change (FC) [9]: 15.7
fold change (FC) [10]: 16.1
fold change (FC) [11]: 17.2
fold change (FC) [12]: 16.4
SMILES: CNC(=O)c1ccc2c(c1)nc(Nc1nc3ccc(OC(F)(F)F)cc3s1)n2C
